# Source: ChEMBL document CHEMBL6153110, “Peptide Double-Stapling and Arginine N-Glycosylation Triggered the Development of Therapeutic Antimicrobial Peptides Capable of Killing Drug-Resistant Bacteria in Mice” (J Med Chem, 2025)
# Activity calls are given as the source filed them. No cut-off for these calls is given here. Positions of bridges follow the written chain, without caps; N, C: chain ends. Non-standard residues stand in square brackets, D forms with d. Residues, ends and D or L forms follow the SMILES beside them. Arg(Nω-βLac) = N=C(NCCC[C@H](N)C(=O)O)N[C@@H]1O[C@H](CO)[C@@H](O[C@@H]2O[C@H](CO)[C@H](O)[C@H](O)[C@H]2O)[C@H](O)[C@H]1O; S5 = C=CCCC[C@](C)(N)C(=O)O
# Columns and labels:
# Staphylococcus aureus [1] = experiment: In vivo antibacterial activity against methicillin-resistant Staphylococcus aureus ATCC 43300 infected locally in full thickness skin wound mouse model assessed as reduction in inflammatory cells in wound at 4 mg/kg treated with absorbable gelatin sponge measured after 7 days; assay type: functional, organism-based; details: time 7.0 day
# Staphylococcus aureus [2] = experiment: In vivo antibacterial activity against methicillin-resistant Staphylococcus aureus ATCC 43300 infected locally in full thickness skin wound mouse model assessed as decrease in edema and ulcerative tissue in wound at 4 mg/kg treated with absorbable gelatin sponge measured after 7 days; assay type: functional, organism-based; details: time 7.0 day
# Cell membrane [3] = experiment: Induction of cell membrane damage in Klebsiella pneumoniae ATCC 13883 assessed as corrugation, blebbing, breakage, and fragmentation at MIC measured after 1 hr incubation by Scanning electron microscopy; assay type: subcellular
# [4] = Toxicity in mouse assessed as inflammatory infiltration at 40 mg/kg, sc by H and E staining based assay; assay type: organism-based; details: in vivo
# Pseudomonas aeruginosa = experiment: Antimicrobial activity against Pseudomonas aeruginosa ATCC 27853 assessed as growth inhibition measured after 8 hrs incubation by standard broth dilution assay; assay type: functional
# Klebsiella pneumoniae [5] = experiment: In vivo antibacterial activity against Klebsiella pneumoniae ATCC 13883 induced bacterial pneumonia mouse model assessed as reduction in bacterial load in lungs at 4 mg/kg, injected into trachea after 24 hrs of infection measured after 3 to 7 days; assay type: functional, organism-based
# Staphylococcus aureus [6] = experiment: In vivo antibacterial activity against methicillin-resistant Staphylococcus aureus ATCC 43300 infected locally in full thickness skin wound mouse model assessed as reduction in bacterial load in skin wound at 1 mg/kg treated with absorbable gelatin sponge measured after 7 days; assay type: functional, organism-based; details: time 7.0 day
# Klebsiella pneumoniae [7] = experiment: In vivo antibacterial activity against Klebsiella pneumoniae ATCC 13883 induced bacterial pneumonia mouse model assessed as reduction in bacterial infection induced IL-6 mRNA expression in lung tissue at 4 mg/kg, injected into trachea after 24 hrs of infection measured after 3 to 7 days; assay type: functional, organism-based
# Staphylococcus aureus [8] = experiment: In vivo antibacterial activity against methicillin-resistant Staphylococcus aureus ATCC 43300 infected locally in full thickness skin wound mouse model assessed as reduced skin damage by promoting wound healing at 4 mg/kg treated with absorbable gelatin sponge measured on early healing stage; assay type: functional, organism-based; details: route id
# Cell membrane [9] = experiment: Induction of cell membrane damage in methicillin-resistant Staphylococcus aureus ATCC 43300 assessed as corrugation, blebbing, breakage, and fragmentation at MIC measured after 1 hr incubation by Scanning electron microscopy; assay type: subcellular
# Klebsiella pneumoniae [10] = experiment: In vivo antibacterial activity against Klebsiella pneumoniae ATCC 13883 induced bacterial pneumonia mouse model assessed as reduction in bacterial infection induced TNF-alpha level in lung tissue at 4 mg/kg, injected into trachea after 24 hrs of infection measured after 3 to 7 days; assay type: functional, organism-based
# [11] = Toxicity in mouse skin assessed as abscesses and visual lesions at 40 mg/kg, sc by histological analysis; assay type: organism-based; details: in vivo
# Staphylococcus aureus [12] = experiment: In vivo antibacterial activity against methicillin-resistant Staphylococcus aureus ATCC 43300 infected locally in full thickness skin wound mouse model assessed as reduction in bacterial load in skin wound at 1 mg/kg treated with absorbable gelatin sponge measured after 3 days; assay type: functional, organism-based; details: time 3.0 day
# Klebsiella pneumoniae [13] = experiment: In vivo antibacterial activity against Klebsiella pneumoniae ATCC 13883 induced bacterial pneumonia mouse model assessed as reduction in bacterial infection induced IL-1beta mRNA expression in lung tissue at 4 mg/kg, injected into trachea after 24 hrs of infection measured after 3 to 7 days; assay type: functional, organism-based
# Klebsiella pneumoniae [14] = experiment: In vivo antibacterial activity against Klebsiella pneumoniae ATCC 13883 induced bacterial pneumonia mouse model assessed as reduction in bacterial infection induced TNF-alpha mRNA expression in lung tissue at 4 mg/kg, injected into trachea after 24 hrs of infection measured after 3 to 7 days; assay type: functional, organism-based
# Cell membrane [15] = experiment: Induction of cell membrane damage in methicillin-resistant Staphylococcus aureus ATCC 43300 assessed as increase in red fluorescence at MIC measured after 1 hr incubation by PI based assay; assay type: subcellular
# Staphylococcus aureus [16] = experiment: Antibiofilm activity in methicillin-resistant Staphylococcus aureus ATCC 43300 assessed as prevention of biofilm formation at 0.5 to 4 times of MIC measured after 24 hrs by crystal violet staining based assay; assay type: functional, organism-based
# Staphylococcus aureus [17] = experiment: Antibiofilm activity in methicillin-resistant Staphylococcus aureus ATCC 43300 assessed as reduction in biofilm formation at 4.6 ug/ml measured after 24 hrs by crystal violet staining based assay relative to control; assay type: functional; parameters: scale not given: the % may be the effect or the level left; details: dose 4.6 µg/ml
# Klebsiella pneumoniae [18] = experiment: In vivo antibacterial activity against Klebsiella pneumoniae ATCC 13883 induced bacterial pneumonia mouse model assessed as reduction in bacterial infection induced IL-1beta level in lung tissue at 4 mg/kg, injected into trachea after 24 hrs of infection measured after 3 to 7 days; assay type: functional, organism-based
# Klebsiella pneumoniae [19] = experiment: Antibacterial activity against Klebsiella pneumoniae ATCC 13883 assessed as reduction in bacterial count at 4.6 ug/ml in bio-film adjusted BM2 medium; assay type: functional, organism-based; details: dose 4.6 µg/ml
# Cell membrane [20] = experiment: Induction of cell membrane damage in Klebsiella pneumoniae ATCC 13883 assessed as increase in red fluorescence at MIC measured after 1 hr incubation by PI based confocal microscopy; assay type: subcellular
# Cell membrane [21] = experiment: Induction of cell membrane damage in methicillin-resistant Staphylococcus aureus ATCC 43300 assessed as increase in green fluorescence at MIC measured after 1 hr incubation by SYTO9 confocal microscopy; assay type: subcellular
# Klebsiella pneumoniae [22] = experiment: Antibiofilm activity in Klebsiella pneumoniae ATCC 13883 assessed as prevention of biofilm formation at 0.5 to 4 times of MIC measured after 24 hrs by crystal violet staining based assay; assay type: functional, organism-based
# Cell membrane [23] = experiment: Induction of cell membrane damage in Klebsiella pneumoniae ATCC 13883 assessed as significant plasma membrane rupture, cytosolic membrane and outer membrane separation, and cytoplasmic leakage at MIC measured after 1 hr incubation by Transmission electron microscopy; assay type: subcellular
# Klebsiella pneumoniae [24] = experiment: In vivo antibacterial activity against Klebsiella pneumoniae ATCC 13883 induced bacterial pneumonia mouse model assessed as reduction in bacterial infection induced inflammatory response in lungs by measuring large number of alveoli at 4 mg/kg, injected into trachea after 24 hrs of infection measured after 3 to 7 days by H and E staining based assay; assay type: functional, organism-based
# Klebsiella pneumoniae [25] = experiment: In vivo antibacterial activity against Klebsiella pneumoniae ATCC 13883 induced bacterial pneumonia mouse model assessed as reduction in bacterial infection induced inflammatory response in lungs by measuring large number of alveoli at 1 mg/kg, injected into trachea after 24 hrs of infection measured after 3 to 7 days by H and E staining based assay; assay type: functional, organism-based
# Cell membrane [26] = experiment: Binding affinity to methicillin-resistant Staphylococcus aureus ATCC 43300 cell membrane treated with FITC labelled peptides at MIC measured after 1.5 hr by CLSM imaging analysis; assay type: subcellular
# Cell membrane [27] = experiment: Induction of cell membrane damage in Klebsiella pneumoniae ATCC 13883 assessed as increase in green fluorescence at MIC measured after 1 hr incubation by SYTO9 confocal microscopy; assay type: subcellular
# Staphylococcus aureus [28] = experiment: Antibacterial activity against methicillin-resistant Staphylococcus aureus ATCC 43300 assessed as reduction in bacterial count at 4.6 ug/ml in bio-film adjusted BM2 medium; assay type: functional, organism-based; details: dose 4.6 µg/ml
# Staphylococcus aureus [29] = experiment: In vivo antibacterial activity against methicillin-resistant Staphylococcus aureus ATCC 43300 infected locally in full thickness skin wound mouse model assessed as reduction in bacterial load in skin wound at 4 mg/kg treated with absorbable gelatin sponge measured after 7 days; assay type: functional, organism-based; details: time 7.0 day
smiles,measurement,setting,value
"CC(=O)N[C@@H](CCCCN)C(=O)N[C@@H](CCCCN)C(=O)N[C@@H](CCCNC(=N)N)C(=O)N[C@H](C(=O)N[C@@H](CCCCN)C(=O)N[C@@H](CCCCN)C(=O)N[C@@H](CCCNC(=N)N)C(=O)N[C@@]1(C)CCC/C=C\CCC[C@@](C)(C(=O)N[C@@H](CCCCN)C(=O)N[C@@]2(C)CCC/C=C\CCC[C@@](C)(C(=O)N[C@@H](CC(C)C)C(=O)N[C@@H](CCCCN)C(=O)N[C@@H](CCCCN)C(=O)N3CCC[C@H]3C(=O)N[C@H](C(=O)N[C@@H](CCCNC(=N)N[C@@H]3O[C@H](CO)[C@@H](O[C@@H]4O[C@H](CO)[C@H](O)[C@H](O)[C@H]4O)[C@H](O)[C@H]3O)C(N)=O)C(C)C)NC(=O)[C@H](CCCNC(=N)N)NC(=O)[C@H](Cc3c[nH]c4ccccc34)NC(=O)[C@H](Cc3ccc(O)cc3)NC2=O)NC(=O)[C@H](CC(C)C)NC(=O)[C@H](CCCCN)NC(=O)[C@H](Cc2ccccc2)NC1=O)C(C)C (Ac-KKRVKKR[S5]FKL[S5]K[S5]YWR[S5]LKKPV[Arg(Nω-βLac)]-NH2; staple (Z) 8-12, 14-18)",Activity,Staphylococcus aureus [1],Active
same,Activity,Staphylococcus aureus [2],Active
same,Activity,Cell membrane [3],Active
same,Activity,[4],Toxic
same,MIC,Pseudomonas aeruginosa,1.1 µg/mL
same,Activity,Klebsiella pneumoniae [5],Active; Compound Showed Superior Therapeutic Effect Than Slp-0
same,Activity,Staphylococcus aureus [6],Active
same,Activity,Klebsiella pneumoniae [7],Active
same,Activity,Staphylococcus aureus [8],Active
same,Activity,Cell membrane [9],Active
same,Activity,Klebsiella pneumoniae [10],Active
same,Activity,[11],Non-toxic
same,Activity,Staphylococcus aureus [12],Active
same,Activity,Klebsiella pneumoniae [13],Active
same,Activity,Klebsiella pneumoniae [14],Active
same,Activity,Cell membrane [15],Active
same,Activity,Staphylococcus aureus [16],Dose-dependent-effect
same,Activity,Staphylococcus aureus [17],80.13%
same,Activity,Klebsiella pneumoniae [18],Active
same,Activity,Klebsiella pneumoniae [19],inactive
same,Activity,Cell membrane [20],Active
same,Activity,Cell membrane [21],Active
same,Activity,Klebsiella pneumoniae [22],Dose-dependent-effect
same,Activity,Cell membrane [23],Active
same,Activity,Klebsiella pneumoniae [24],Active
same,Activity,Klebsiella pneumoniae [25],Active
same,Activity,Cell membrane [26],Active; Compound Exhibited Brighter Red
same,Activity,Cell membrane [27],Active
same,Activity,Staphylococcus aureus [28],inactive
same,Activity,Staphylococcus aureus [29],Active
